Data: patent publication US11839614B2, “Methods for treating or mitigating cardiotoxicity characterized by inhibition of adenosine A2 signaling and/or adenosine A2 receptor expression” (INTRA-CELLULAR THERAPIES, INC., priority 2018, dated 2023)
Structures can show the parent of a compound that is named as a salt.

Assays:
myocyte cAMP = experiment: Whole cell cAMP in isolated rabbit myocytes; type: cell-based
Source text: This is consistent with prior studies showing locally generated cAMP from β-AR and its modulation by PDE3 occur in local subcellular domains that are not easily detected in whole cell lysates32.

adult rabbit myocytes = experiment: Contraction and calcium transients in isolated rabbit cardiomyocytes; type: cell-based; settings: for decay kinetics / relaxation times / peak-Ca2+ transient / percent sarcomere shortening: agent alone: Cil 1 μM, Compound 1 1 μM, Iso non-saturating dose
Experimental: To test whether PDE1 inhibition directly impacts cardiomyocyte contraction and calcium transients, studies are carried out on normal adult rabbit myocytes. […] As PDE1 requires sufficient cAMP and Ca^2+ to be impactful, a dose response was performed to the adenylate cyclase activator, forskolin (FSK) to determine the lowest dose producing a modest but significant inotropic effect (1 μM).
Rabbit myocytes were isolated to determine the effect of PDE1 inhibition on cardiomyocyte contraction and whole cell Ca2+ transients, and to compare the results to those with a PDE3 inhibitor, cilostamide (Cil, 1 μM).
An alternative approach to augmenting cAMP independent of […] is to directly stimulate adenylate cyclase using forskolin (Fsk). A dose response study was carried out to identify a non-saturating Fsk dose that still generated significant inotropic effects (1 μM).

plasma cAMP and cGMP = experiment: Plasma cAMP and cGMP by ELISA in dogs; type: in vivo, dog
Experimental: Blood plasma is obtained from these animals, and cAMP and cGMP are assayed by ELISA.

[1] = tested on: normal and failing canine hearts; experiment: Conscious dog pressure-volume hemodynamic analysis, normal and failing hearts; type: in vivo; settings: dobutamine 10 μg/kg/min alone
Source text: Dogs are studied in the conscious state before and after inducing dilated cardiomyopathy by tachypacing for two weeks at 200 bpm. […]
Load insensitive indexes of contractility (dP/dtmax/IP and PRSW) increased.

[2] = tested on: rabbit heart and vasculature; experiment: Anesthetized rabbit pressure-volume hemodynamics with or without esmolol or MRS-1754; type: in vivo; settings: for effect of blocker on Compound 1 responses: atrially paced, fixed heart rate; for impact of inhibitor pre-treatment alone on cardiovascular hemodynamics: rabbit, in vivo
Source text: Cyclic AMP is generated largely by transmembrane adenylyl cyclases activated via stimulatory G protein (Gs), with β-adrenergic, adenosine (primarily A2B), glucagon, prostanoids, histamine, and serotonin all coupling to Gs in cardiomyocytes. The present studies focus on beta-adrenergic and adenosine receptors, and for the latter, concentrated on the A2B receptor, which has been reported to directly stimulate cAMP-dependent contractility. […] Relaxation changes are also modest with LV preload (end-diastolic and volume) unaltered; however, the combined vasodilator-inotropic response doubled ventricular/arterial coupling ratio, Ees/Ea.
New Zealand White rabbits (male, 2-3 kg) are sedated with 35 mg/kg ketamine and 5 mg/kg xylazine, intubated and ventilated (Model 683, Harvard Apparatus, Holliston, Mass.), with anesthesia maintained with isoflurane inhalation (1-2%). A pressure-volume catheter (SPR-894, Millar, Inc., Houston, Tex.) is inserted via the common carotid artery and advanced to the LV apex, and a 2-Fr pacing catheter is positioned in the right atrium via the right jugular vein to provide atrial pacing. […] The parallel conductance is determined by the hypertonic saline injection method. Rabbits are infused with 6% hetastarch in saline during the procedure to stabilize arterial pressure.

[3] = agent added to non-saturating Iso
[4] = agent alone: Iso 50 nM, Compound 1 up to 1 mM, IBMX 100 μM

Q: For `CN(C(=O)CCCOc1ccc2[nH]c(=O)ccc2c1)C1CCCCC1` [Cil, cilostamide], which “whole cell cAMP” value (myocyte cAMP; agent added to Fsk) is on record?
A: unaltered

Q: And the “whole cell cAMP” value (myocyte cAMP; agent alone)?
A: did not measurably increase whole cell cAMP

Q: What about the “whole cell cAMP” value (myocyte cAMP; agent combined with Iso) of the same compound?
A: did not measurably increase whole cell cAMP

Q: And the “Ca2+ transient decay rate” value (adult rabbit myocytes; agent added to Fsk 1 μM)?
A: faster decay of the Ca2+ transient

Q: What about the “peak Ca2+ transient” value (adult rabbit myocytes; agent added to Fsk 1 μM) of the same compound?
A: increase

Q: What about the sarcomere shortening (adult rabbit myocytes; agent added to Fsk 1 μM) of the same compound?
A: increase in sarcomere shortening

Q: What about the “peak-Ca2+” value (adult rabbit myocytes; [3]) of the same compound?
A: remained elevated over baseline

Q: What about the sarcomere shortening (adult rabbit myocytes; [3]) of the same compound?
A: further increased sarcomere shortening

Q: And the “decay kinetics / relaxation times” value (adult rabbit myocytes)?
A: accelerated

Q: And the “peak-Ca2+ transient” value (adult rabbit myocytes)?
A: rose

Q: What about the percent sarcomere shortening (adult rabbit myocytes) of the same compound?
A: rose

Q: For `CC(CCc1ccc(O)cc1)NCCc1ccc(O)c(O)c1` (centres unmarked) [Dobutamine, dobutamine, reference compound], which “plasma cAMP” value (plasma cAMP and cGMP; HF dogs, single drugs) is on record?
A: not significantly changed

Q: What about the “plasma cGMP” value (plasma cAMP and cGMP; all conditions, normal and HF models) of the same compound?
A: remains unchanged

Q: And the “plasma cAMP” value (plasma cAMP and cGMP; normal dogs)?
A: augmented plasma cAMP

Q: What about the “PV loop area (stroke work)” value [1] of the same compound?
A: increased PV loop area

Q: For `CC(C)Cn1c(=O)n(C)c(=O)c2[nH]cnc21` [IBMX], which “contraction/calcium decay time or rates” value (adult rabbit myocytes; [4]) is on record?
A: increased

Q: And the “peak Ca2+ transient” value (adult rabbit myocytes; [4])?
A: did not alter peak calcium transients

Q: What about the sarcomere shortening (adult rabbit myocytes; [4]) of the same compound?
A: increased shortening

Q: With `CCCn1c(=O)c2[nH]c(-c3ccc(OCC(=O)Nc4ccc(C#N)cc4)cc3)nc2n(CCC)c1=O` [MRS-1754, reference compound] as the compound, how does the “effect of blocker on cardiovascular responses to Compound 1 (heart rate, contractility, vasodilation)” value ([2]; MRS-1754 1 mg/kg iv before Compound 1 0.1 mg/kg) read?
A: eliminated all of the cardiovascular responses to Compound 1

Q: What about the “effect of blocker on Compound 1 responses” value [2] of the same compound?
A: fully blocked

Q: And the “impact of inhibitor pre-treatment alone on cardiovascular hemodynamics” value [2]?
A: Neither inhibitor pre-treatment alone has a significant impact

Q: With `COC(=O)CCc1ccc(OCC(O)CNC(C)C)cc1` (centres unmarked) [esmolol, esmolol HCl, reference compound] as the compound, how does the “effect of blocker on Compound 1 responses” value [2] read?
A: unaltered

Q: What about the “block of cardiac responses to 10 μg/kg/min dobutamine” value ([2]; esmolol 0.5 mg/kg bolus then 0.05 mg/kg/min) of the same compound?
A: effectively blocked

Q: What about the “impact of inhibitor pre-treatment alone on cardiovascular hemodynamics” value [2] of the same compound?
A: Neither inhibitor pre-treatment alone has a significant impact

Q: Which “lowest (non-saturating) dose producing a modest but significant inotropic effect” value (adult rabbit myocytes; dose response) does the source give for `C=C[C@@]1(C)CC(=O)[C@]2(O)[C@@]3(C)[C@@H](O)CCC(C)(C)[C@@H]3[C@H](O)[C@H](OC(C)=O)[C@@]2(C)O1` [forskolin] here?
A: 1 µM

Q: What does the source list for `CC(C)NCC(O)c1ccc(O)c(O)c1` (centres unmarked) [isoproterenol]?
A: whole cell cAMP (myocyte cAMP; agent alone): did not measurably increase whole cell cAMP; decay kinetics / relaxation times (adult rabbit myocytes): quickened relaxation times; peak-Ca2+ transient (adult rabbit myocytes): increased; percent sarcomere shortening (adult rabbit myocytes): increased; contraction/calcium decay time or rates (adult rabbit myocytes; [4]): accelerates the decay time of both; peak Ca2+ transient (adult rabbit myocytes; [4]): increases; sarcomere shortening (adult rabbit myocytes; [4]): increases
